Results reported in patent US20230058171A1, “NEW ORAL PHARMACEUTICAL COMPOSITION FOR CANCER THERAPY” (BOEHRINGER INGELHEIM INTERNATIONAL GMBH, priority 2021, published 2023).

Legend:
[1] = Human therapeutic dose prediction
Experimental: Preliminary pharmacokinetic (PK) data were used as supportive information for the dose decision. The human therapeutic dose was predicted based on a minimum effective AUC0-168 of 30,700 nM*h (QW), which was determined in a mouse SJSA-1 xenograft experiment. For this, the difference in plasma protein binding between human and mouse was taken into account, which translated to an effective AUC0-168 of 11,350 nM*h for QW dosing in humans. The human therapeutic dose was predicted to be 64 mg (free acid) with QW dosing.

[2] = system: patients; assay: Trial 1403-0002 combination with ezabenlimab (and anti-LAG3-1): adverse events; details: for AEs leading to Discontinuation: Dose limiting toxicity, % / AEs leading to Discontinuation: Other adverse event, % / Patients with Dose limiting toxicity (cycle one), % / Serious AEs: Cogenital Anomaly or Birth Defect, % / Serious AEs: Is Life Threatening, % / Serious AEs: Other Medically Important Serious Event, % / Serious AEs: Persists of Signif. Disability/Incapacity, % / Serious AEs: Requires or Prolongs Hospitalization, % / Serious AEs: Results in Death, % / Subjects with AEs leading to Discontinuation of trial drug, % / Subjects with AEs leading to dose reduction of trial drug, % / Subjects with any AE, % / Subjects with immune-related AEs, % / Subjects with infusion related reactions, % / Subjects with investigator defined drug-related AEs, % / Subjects with maximum CTC Grade 1, % / Subjects with maximum CTC Grade 2, % / Subjects with maximum CTC Grade 3, % / Subjects with maximum CTC Grade 4, % / Subjects with maximum CTC Grade 5, % / Subjects with serious AEs, %: triple combination D1 q3w
[3] = double combination with 240 mg ezabenlimab, 15 patients

Cc1c(C(=O)O)ccc2c3n(nc12)[C@@H]1[C@H](C3)N(CC2CC2)[C@@]2(C(=O)Nc3cc(Cl)ccc32)[C@H]1c1cccc(Cl)c1F [MDM2-antagonist of formula I, (2′S,3′S,3a'S,10a'S)-6-chloro-3′-(3-chloro-2-fluorophenyl)-1′-(cyclopropylmethyl)-6′-methyl-2-oxo-1,2,3′,3a′,10′,10a′-hexahydro-1′H-spiro[indole-3,2′-pyrrolo[2′,3′:4,5]pyrrolo[1,2-b]indazole]-7′-carboxylic acid]
45.5%: Serious AEs: Requires or Prolongs Hospitalization, % ([2]; Total) | Subjects with serious AEs, % ([2]; Total)
9.1%: Subjects with immune-related AEs, % ([2]; Total) | Subjects with infusion related reactions, % ([2]; Total) | Subjects with maximum CTC Grade 1, % ([2]; Total)
18.2%: Subjects with AEs leading to dose reduction of trial drug, % ([2]; Total) | Subjects with maximum CTC Grade 4, % ([2]; Total)
One: patients with a DLT during cycle 1 ([2]; double combination with 240 mg ezabenlimab, 15 patients, Grade 2 neutropenia at 45 mg)
manageable safety profile: safety profile ([2]; double combination, 30 mg or 45 mg + 240 mg ezabenlimab D1 q3w)
3 patients: patients with Grade ≥3 lymphopenia [2, 3]
4 patients: patients with Grade ≥3 thrombocytopenia [2, 3]
66.7%: Subjects with maximum CTC Grade 2, % ([2]; 10 mg) | Serious AEs: Requires or Prolongs Hospitalization, % ([2]; 20 mg) | Subjects with serious AEs, % ([2]; 20 mg) | Serious AEs: Requires or Prolongs Hospitalization, % ([2]; 30 mg) | Subjects with serious AEs, % ([2]; 30 mg)
50.0%: Serious AEs: Requires or Prolongs Hospitalization, % ([2]; 45 mg) | Subjects with AEs leading to dose reduction of trial drug, % ([2]; 45 mg) | Subjects with maximum CTC Grade 2, % ([2]; 45 mg) | Subjects with maximum CTC Grade 4, % ([2]; 45 mg) | Subjects with serious AEs, % ([2]; 45 mg)
6 patients: patients with Grade ≥3 anemia [2, 3]
11.3 µM·h: AUC(0-t) ([1]; oral, 64 mg, QW dosing in humans, corrected for plasma protein binding human vs mouse, read-out: effective AUC0-168)
36.4%: Subjects with maximum CTC Grade 2, % ([2]; Total) | Subjects with maximum CTC Grade 3, % ([2]; Total)
0%: AEs leading to Discontinuation: Dose limiting toxicity, % ([2]; 10 mg) | AEs leading to Discontinuation: Other adverse event, % ([2]; 10 mg) | Patients with Dose limiting toxicity (cycle one), % ([2]; 10 mg) | Serious AEs: Cogenital Anomaly or Birth Defect, % ([2]; 10 mg) | Serious AEs: Is Life Threatening, % ([2]; 10 mg) | Serious AEs: Other Medically Important Serious Event, % ([2]; 10 mg) | Serious AEs: Persists of Signif. Disability/Incapacity, % ([2]; 10 mg) | Serious AEs: Requires or Prolongs Hospitalization, % ([2]; 10 mg) | Serious AEs: Results in Death, % ([2]; 10 mg) | Subjects with AEs leading to Discontinuation of trial drug, % ([2]; 10 mg) | Subjects with AEs leading to dose reduction of trial drug, % ([2]; 10 mg) | Subjects with immune-related AEs, % ([2]; 10 mg) | Subjects with maximum CTC Grade 3, % ([2]; 10 mg) | Subjects with maximum CTC Grade 4, % ([2]; 10 mg) | Subjects with maximum CTC Grade 5, % ([2]; 10 mg) | Subjects with serious AEs, % ([2]; 10 mg) | AEs leading to Discontinuation: Dose limiting toxicity, % ([2]; 20 mg) | AEs leading to Discontinuation: Other adverse event, % ([2]; 20 mg) | Patients with Dose limiting toxicity (cycle one), % ([2]; 20 mg) | Serious AEs: Cogenital Anomaly or Birth Defect, % ([2]; 20 mg) | Serious AEs: Is Life Threatening, % ([2]; 20 mg) | Serious AEs: Other Medically Important Serious Event, % ([2]; 20 mg) | Serious AEs: Persists of Signif. Disability/Incapacity, % ([2]; 20 mg) | Serious AEs: Results in Death, % ([2]; 20 mg) | Subjects with AEs leading to Discontinuation of trial drug, % ([2]; 20 mg) | Subjects with AEs leading to dose reduction of trial drug, % ([2]; 20 mg) | Subjects with infusion related reactions, % ([2]; 20 mg) | Subjects with maximum CTC Grade 1, % ([2]; 20 mg) | Subjects with maximum CTC Grade 2, % ([2]; 20 mg) | Subjects with maximum CTC Grade 4, % ([2]; 20 mg) | Subjects with maximum CTC Grade 5, % ([2]; 20 mg) | AEs leading to Discontinuation: Dose limiting toxicity, % ([2]; 30 mg) | AEs leading to Discontinuation: Other adverse event, % ([2]; 30 mg) | Patients with Dose limiting toxicity (cycle one), % ([2]; 30 mg) | Serious AEs: Cogenital Anomaly or Birth Defect, % ([2]; 30 mg) | Serious AEs: Is Life Threatening, % ([2]; 30 mg) | Serious AEs: Other Medically Important Serious Event, % ([2]; 30 mg) | Serious AEs: Persists of Signif. Disability/Incapacity, % ([2]; 30 mg) | Serious AEs: Results in Death, % ([2]; 30 mg) | Subjects with AEs leading to Discontinuation of trial drug, % ([2]; 30 mg) | Subjects with immune-related AEs, % ([2]; 30 mg) | Subjects with infusion related reactions, % ([2]; 30 mg) | Subjects with maximum CTC Grade 1, % ([2]; 30 mg) | Subjects with maximum CTC Grade 5, % ([2]; 30 mg) | AEs leading to Discontinuation: Dose limiting toxicity, % ([2]; 45 mg) | AEs leading to Discontinuation: Other adverse event, % ([2]; 45 mg) | Patients with Dose limiting toxicity (cycle one), % ([2]; 45 mg) | Serious AEs: Cogenital Anomaly or Birth Defect, % ([2]; 45 mg) | Serious AEs: Is Life Threatening, % ([2]; 45 mg) | Serious AEs: Other Medically Important Serious Event, % ([2]; 45 mg) | Serious AEs: Persists of Signif. Disability/Incapacity, % ([2]; 45 mg) | Serious AEs: Results in Death, % ([2]; 45 mg) | Subjects with AEs leading to Discontinuation of trial drug, % ([2]; 45 mg) | Subjects with immune-related AEs, % ([2]; 45 mg) | Subjects with infusion related reactions, % ([2]; 45 mg) | Subjects with maximum CTC Grade 1, % ([2]; 45 mg) | Subjects with maximum CTC Grade 3, % ([2]; 45 mg) | Subjects with maximum CTC Grade 5, % ([2]; 45 mg) | AEs leading to Discontinuation: Dose limiting toxicity, % ([2]; Total) | AEs leading to Discontinuation: Other adverse event, % ([2]; Total) | Patients with Dose limiting toxicity (cycle one), % ([2]; Total) | Serious AEs: Cogenital Anomaly or Birth Defect, % ([2]; Total) | Serious AEs: Is Life Threatening, % ([2]; Total) | Serious AEs: Other Medically Important Serious Event, % ([2]; Total) | Serious AEs: Persists of Signif. Disability/Incapacity, % ([2]; Total) | Serious AEs: Results in Death, % ([2]; Total) | Subjects with AEs leading to Discontinuation of trial drug, % ([2]; Total) | Subjects with maximum CTC Grade 5, % ([2]; Total)
64 mg: predicted human therapeutic dose ([1]; free acid, QW dosing)
Four: DLTs reported after cycle 1 [2, 3]
33.3%: Subjects with infusion related reactions, % ([2]; 10 mg) | Subjects with maximum CTC Grade 1, % ([2]; 10 mg) | Subjects with immune-related AEs, % ([2]; 20 mg) | Subjects with AEs leading to dose reduction of trial drug, % ([2]; 30 mg) | Subjects with maximum CTC Grade 2, % ([2]; 30 mg) | Subjects with maximum CTC Grade 3, % ([2]; 30 mg) | Subjects with maximum CTC Grade 4, % ([2]; 30 mg)
680 nM: Cmax ([1]; at predicted human therapeutic dose, QW)
100%: Subjects with any AE, % ([2]; 10 mg) | Subjects with investigator defined drug-related AEs, % ([2]; 10 mg) | Subjects with any AE, % ([2]; 20 mg) | Subjects with investigator defined drug-related AEs, % ([2]; 20 mg) | Subjects with maximum CTC Grade 3, % ([2]; 20 mg) | Subjects with any AE, % ([2]; 30 mg) | Subjects with investigator defined drug-related AEs, % ([2]; 30 mg) | Subjects with any AE, % ([2]; 45 mg) | Subjects with investigator defined drug-related AEs, % ([2]; 45 mg) | Subjects with any AE, % ([2]; Total) | Subjects with investigator defined drug-related AEs, % ([2]; Total)
eight: patients with Grade ≥3 adverse events [2, 3]
